Assay [1] deals with GST-CBP(1081-1197) bromodomain (Homo sapiens (Human), UniProt Q92793). In words: CBP AlphaScreen Assay. Particulars: binding to biotin-H4(1-21) Ac-K5/8/12/16. A digest of the protocol:
(§1)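 AlphaScreen binding of GST-bromodomain to biotin-H4(1-21) Ac-K5/8/12/16: 5 nM CBP with 20 nM peptide, or 2.5 nM BRD4 with 10 nM peptide, in 50 mM HEPES 7.5, […], 1 mM TCEP, 0.003% Tween-20. Compound preincubated 30 min, then beads 2 h, room temperature. IC50 from variable-slope fit.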

In a further assay the target is BRD4(49-170) bromodomain (Homo sapiens (Human), UniProt O60885). In words: BRD4 AlphaScreen Assay. Particulars: binding to biotin-H4(1-21) Ac-K5/8/12/16. A digest of the protocol:
as §1
A general note: In Alpha technology, singlet oxygen from a donor bead excites a nearby acceptor bead.

The text below walks through data of patent US10899769B2, “Imidazopiperazinone inhibitors of transcription activating proteins” (Board of Regents, The University of Texas System, priority 2018, dated 2021).

The structures appear in SMILES notation.

GST-CBP(1081-1197) bromodomain, sequence (Q92793 1081-1197): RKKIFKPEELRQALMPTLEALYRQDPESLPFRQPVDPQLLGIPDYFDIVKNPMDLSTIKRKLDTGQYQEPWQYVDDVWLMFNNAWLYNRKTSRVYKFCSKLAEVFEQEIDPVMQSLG

On to `CNC(=O)N1CC(c2nc(-c3cccc4nc(-c5cnn(C)c5)c(C(F)F)cc34)c3n2C(C)C(=O)N(C)C3)C1` (centres unmarked) [Example 24, 3-(1-(3-(Difluoromethyl)-2-(1-methyl-1H-pyrazol-4-yl)quinolin-5-yl)-5,7-dimethyl-6-oxo-5,6,7,8-tetrahydroimidazo[1,5-a]pyrazin-3-yl)-N-methylazetidine-1-carboxamide], for which the half-inhibitory concentration (IC50) (usually the concentration at which inhibition is half-maximal) is 81 nM in assay [1] and 4890 nM on BRD4(49-170) bromodomain.
For `CC1C(=O)N(C)Cc2c(-c3cccc4nc(-c5cnn(C)c5)c(C(F)F)cc34)nc(C3CN(CCF)C3)n21` (centres unmarked) [Example 25, 1-(3-(Difluoromethyl)-2-(1-methyl-1H-pyrazol-4-yl)quinolin-5-yl)-3-(1-(2-fluoroethyl)azetidin-3-yl)-5,7-dimethyl-7,8-dihydroimidazo[1,5-a]pyrazin-6(5H)-one], in that order: 26 nM and 11600 nM.
The like results for `CN1Cc2c(-c3cccc4nc(-c5cnn(C)c5)c(C(F)F)cc34)nc(C3CCOCC3)n2C(F)C1=O` (centres unmarked) [Example 27, 1-(3-(Difluoromethyl)-2-(1-methyl-1H-pyrazol-4-yl)quinolin-5-yl)-5-fluoro-7-methyl-3-(tetrahydro-2H-pyran-4-yl)-7,8-dihydroimidazo[1,5-a]pyrazin-6(5H)-one] were, in that order, 43 nM and 8940 nM.
`CC1C(=O)N(C)Cc2c(-c3cccc4nc(-c5cnn(C)c5)c(C(F)F)cc34)nc(C3CN(CCO)C3)n21` (centres unmarked) [Example 28, 1-(3-(Difluoromethyl)-2-(1-methyl-1H-pyrazol-4-yl)quinolin-5-yl)-3-(1-(2-hydroxyethyl)azetidin-3-yl)-5,7-dimethyl-7,8-dihydroimidazo[1,5-a]pyrazin-6(5H)-one]: the concentration for half-maximal inhibition (IC50) was found to be 123 nM in assay [1] and 9370 nM on BRD4(49-170) bromodomain.
Take `CC1C(=O)N(C)Cc2c(-c3c(F)ccc4nc(-c5cnn(C)c5)c(C(F)(F)F)cc34)nc(C3CCOCC3)n21` (centres unmarked) [Example 35, 1-(6-Fluoro-2-(1-methyl-1H-pyrazol-4-yl)-3-(trifluoromethyl)quinolin-5-yl)-5,7-dimethyl-3-(tetrahydro-2H-pyran-4-yl)-7,8-dihydroimidazo[1,5-a]pyrazin-6(5H)-one]: the IC50 in assay [1] was 1200 nM; on BRD4(49-170) bromodomain it was 25000 nM.
For the compound `CN1Cc2c(N3CCCc4nc(-c5cnn(C)c5)c(C(F)(F)F)cc43)nc(C3CC3)n2CC1=O` [Example 39, 3-Cyclopropyl-7-methyl-1-(6-(1-methyl-1H-pyrazol-4-yl)-7-(trifluoromethyl)-3,4-dihydro-1,5-naphthyridin-1(2H)-yl)-7,8-dihydroimidazo[1,5-a]pyrazin-6(5H)-one], the IC50 was determined as 185 nM in assay [1] and 25000 nM at BRD4(49-170) bromodomain.
As to `CC1C(=O)N(C)Cc2c(-c3ccc4c(c3)c(-c3cnn(C)c3)nn4C)nc(C3CCOCC3)n21` (centres unmarked) [Example 40, 5,7-Dimethyl-1-(1-methyl-3-(1-methyl-1H-pyrazol-4-yl)-1H-indazol-5-yl)-3-(tetrahydro-2H-pyran-4-yl)-7,8-dihydroimidazo[1,5-a]pyrazin-6(5H)-one], the IC50 in assay [1] turned out to be 9 nM; on BRD4(49-170) bromodomain it was 1040 nM.
For `CC1C(=O)N(C)Cc2c(-c3ccc4c(c3)c(-c3cnn(C)c3)nn4C)nc(C3=CCOCC3)n21` (centres unmarked) [Example 41, 3-(3,6-Dihydro-2H-pyran-4-yl)-5,7-dimethyl-1-(1-methyl-3-(1-methyl-1H-pyrazol-4-yl)-1H-indazol-5-yl)-7,8-dihydroimidazo[1,5-a]pyrazin-6(5H)-one], the half-inhibitory concentration (IC50) in assay [1] is 14 nM; at BRD4(49-170) bromodomain it was 1620 nM.
On to `CC1C(=O)N(C)Cc2c(-c3cc4c(-c5cnn(C)c5)nn(C)c4cc3F)nc(C3=CCOCC3)n21` (centres unmarked) [Example 42, 3-(3,6-Dihydro-2H-pyran-4-yl)-1-(6-fluoro-1-methyl-3-(1-methyl-1H-pyrazol-4-yl)-1H-indazol-5-yl)-5,7-dimethyl-7,8-dihydroimidazo[1,5-a]pyrazin-6(5H)-one], for which the results for the IC50 (in assay [1]; at BRD4(49-170) bromodomain) were 28 nM and 3330 nM, respectively.
For `CC1C(=O)N(C)Cc2c(-c3cc4c(-c5cnn(C)c5)nn(C)c4cc3F)nc(C3CCOCC3)n21` (centres unmarked) [Example 43, 1-(6-Fluoro-1-methyl-3-(1-methyl-1H-pyrazol-4-yl)-1H-indazol-5-yl)-5,7-dimethyl-3-(tetrahydro-2H-pyran-4-yl)-7,8-dihydroimidazo[1,5-a]pyrazin-6(5H)-one 2,2,2-trifluoroacetate], in that order: 6 nM and 1440 nM.
Consider `CC1C(=O)N(C)Cc2c(-c3cccc4nc(-c5nsc(=O)[nH]5)c(C(F)F)cc34)nc(C3CC3)n21` (centres unmarked) [Example 46, 3-(5-(3-Cyclopropyl-5,7-dimethyl-6-oxo-5,6,7,8-tetrahydroimidazo[1,5-a]pyrazin-1-yl)-3-(difluoromethyl)quinolin-2-yl)-1,2,4-thiadiazol-5(4H)-one], for which the IC50 in assay [1] was found to be 2 nM; at BRD4(49-170) bromodomain it was 341 nM.
With `CC1C(=O)N(C)Cc2c(-c3cccc4cc(-c5nsc(=O)[nH]5)ncc34)nc(C3CC3)n21` (centres unmarked) [Example 47, 3-(8-(3-Cyclopropyl-5,7-dimethyl-6-oxo-5,6,7,8-tetrahydroimidazo[1,5-a]pyrazin-1-yl)isoquinolin-3-yl)-1,2,4-thiadiazol-5(4H)-one], the values for the concentration for half-maximal inhibition (IC50) (in assay [1]; at BRD4(49-170) bromodomain) were 2 nM and 1460 nM, respectively.
As for `CCN1Cc2c(N3CCCc4cc(-c5cnn(C)c5)c(C(F)F)cc43)nc(C3CC3)n2CC1=O` [Example 48, 3-cyclopropyl-1-(7-(difluoromethyl)-6-(1-methyl-1H-pyrazol-4-yl)-3,4-dihydroquinolin-1(2H)-yl)-7-ethyl-7,8-dihydroimidazo[1,5-a] pyrazin-6(5H)-one], the IC50 in assay [1] came out at 18 nM; on BRD4(49-170) bromodomain it was 17600 nM.
Turning to `CC1C(=O)N(C)Cc2c(N3CCCc4cc(-c5cnn(C)c5)c(C(F)F)cc43)nc(C3CC3)n21` (centres unmarked) [Example 49, 3-cyclopropyl-1-(7-(difluoromethyl)-6-(1-methyl-1H-pyrazol-4-yl)-3,4-dihydroquinolin-1(2H)-yl)-5,7-dimethyl-7,8-dihydroimidazo[1,5-a] pyrazin-6(5H)-one], the 50% inhibitory concentration (IC50) in assay [1] was found to be 1 nM; at BRD4(49-170) bromodomain, 332 nM.
`CC1C(=O)N(C)Cc2c(-c3ccc4c(cnn4C)c3)nc(C3CC3)n21` (centres unmarked) [Example 50, 3-cyclopropyl-5,7-dimethyl-1-(1-methyl-1H-indazol-5-yl)-7,8-dihydroimidazo[1,5-a] pyrazin-6(5H)-one]: the values for the concentration for half-maximal inhibition (IC50) (in assay [1]; on BRD4(49-170) bromodomain) were 155 nM and 1180 nM, respectively.
Take `CC1C(=O)N(C)Cc2c(-c3ccc4sccc4c3)nc(C3CC3)n21` (centres unmarked) [Example 52, 1-(benzo[b]thiophen-5-yl)-3-cyclopropyl-5,7-dimethyl-7,8-dihydroimidazo[1,5-a] pyrazin-6(5H)-one]: the IC50 is 94 nM in assay [1] and 487 nM at BRD4(49-170) bromodomain.
Regarding `CC1C(=O)N(C)Cc2c(-c3ccc4ccncc4c3)nc(C3CC3)n21` (centres unmarked) [Example 53, 3-cyclopropyl-1-(isoquinolin-7-yl)-5,7-dimethyl-7,8-dihydroimidazo[1,5-a] pyrazin-6(5H)-one], the IC50 in assay [1] came out at 159 nM; at BRD4(49-170) bromodomain it was 2960 nM.
For `CC1C(=O)N(C)Cc2c(-c3ccc4cncn4c3)nc(C3CC3)n21` (centres unmarked) [Example 54, 3-cyclopropyl-1-(imidazo[1,5-a]pyridin-6-yl)-5,7-dimethyl-7,8-dihydroimidazo[1,5-a] pyrazin-6(5H)-one], the IC50 is 751 nM in assay [1] and 2100 nM at BRD4(49-170) bromodomain.
In the case of `CC1C(=O)N(C)Cc2c(-c3cccc4cc(C5=CCOCC5)ncc34)nc(C3CC3)n21` (stereo not drawn) [Example 55, 3-cyclopropyl-l-(3-(3,6-dihydro-2H-pyran-4-yl)isoquinolin-8-yl)-5,7-dimethyl-7,8-dihydroimidazo[1,5-a] pyrazin-6(5H)-one], the figures for the IC50 (in assay [1]; at BRD4(49-170) bromodomain) were 2 nM and 392 nM, respectively.
As to `CC1C(=O)N(C)Cc2c(-c3ccn4cncc4c3)nc(C3CC3)n21` (centres unmarked) [Example 57, 3-cyclopropyl-1-(imidazo[1,5-a]pyridin-7-yl)-5,7-dimethyl-7,8-dihydroimidazo[1,5-a] pyrazin-6(5H)-one], the values for the IC50 (in assay [1]; on BRD4(49-170) bromodomain) were 1070 nM and 2610 nM, respectively.
For `CC1C(=O)N(C)Cc2c(-c3cccc4cc(C5CCOCC5)ncc34)nc(C3CC3)n21` (centres unmarked) [Example 58, 3-cyclopropyl-5,7-dimethyl-1-(3-(tetrahydro-2H-pyran-4-yl)isoquinolin-8-yl)-7,8-dihydroimidazo[1,5-a] pyrazin-6(5H)-one], in that order: 2 nM and 188 nM.
For `Cc1c(-c2cc3cccc(-c4nc(C5CC5)n5c4CN(C)C(=O)C5C)c3cn2)cnn1C` (centres unmarked) [Example 59, 3-cyclopropyl-1-(3-(1,5-dimethyl-1H-pyrazol-4-yl)isoquinolin-8-yl)-5,7-dimethyl-7,8-dihydroimidazo[1,5-a] pyrazin-6(5H)-one], in that order: 4 nM and 496 nM.
For `Cc1c(-c2nc3cccc(-c4nc(C5CC5)n5c4CN(C)C(=O)C5C)c3cc2C(F)F)cnn1C` (centres unmarked) [Example 61, 3-cyclopropyl-1-(3-(difluoromethyl)-2-(1,5-dimethyl-1H-pyrazol-4-yl)quinolin-5-yl)-5,7-dimethyl-7,8-dihydroimidazo[1,5-a] pyrazin-6(5H)-one], the IC50 in assay [1] turned out to be 4 nM; on BRD4(49-170) bromodomain, 511 nM.
In the case of `CC1C(=O)N(C)Cc2c(-c3cccc4cc(-c5ccn(C)n5)ncc34)nc(C3CC3)n21` (stereo not drawn) [Example 62, 3-cyclopropyl-5,7-dimethyl-1-(3-(l-methyl-1H-pyrazol-3-yl)isoquinolin-8-yl)-7,8-dihydroimidazo[1,5-a] pyrazin-6(5H)-one], the 50% inhibitory concentration (IC50) was determined as 2 nM in assay [1] and 164 nM at BRD4(49-170) bromodomain.
As for `Cc1nn(C)cc1-c1cc2cccc(-c3nc(C4CC4)n4c3CN(C)C(=O)C4C)c2cn1` (centres unmarked) [Example 63, 3-cyclopropyl-1-(3-(1,3-dimethyl-1H-pyrazol-4-yl)isoquinolin-8-yl)-5,7-dimethyl-7,8-dihydroimidazo[1,5-a] pyrazin-6(5H)-one], the results for the half-maximal inhibitory concentration (IC50) (in assay [1]; at BRD4(49-170) bromodomain) were 1 nM and 76 nM, respectively.
